Reference: patent US11512353B2, “Method to predict response to neuropsychiatric drugs using variation in the serotonin 7 receptor (HTR7) gene” (The Regents of the University of California, priority 2018, dated 2022)

Columns and labels:
HTR7 [1] = biological target: HTR7 (Homo sapiens, UniProt P34969); settings: cited from earlier work
[2] = tested on: outpatients with moderate to severe unipolar depression; assay: Prospective GENDEP cohort: association of rs7905446 genotype with antidepressant remission; type: in vivo, human; settings: TT vs TG/GG, logistic regression adjusted for sex, age and center ID, week 12, remission MADRS≤10
Protocol: Statistical analysis. The association between drug response and allelic SNPs identified from pooled-sequencing were performed using logistic regression (PLINK version 1.9).. The association between drug response and […] genotype was performed using logistic regression within Caucasian population. χ^2 tests were used to compare the sex distribution between responder and non-responder. Group differences were analyzed using Student's T-test. […] Replication study II in the Genome-based Therapeutic Drugs for Depression ([…]) study. […] is a multicenter part-randomized open-label pharmacogenetic study of 811 outpatients with moderate to severe unipolar depression diagnosed according to DSM-IV and established in the semi-structured SCAN interview. Patients were aged 19 to 72 years with European ancestry for at least two generations. Patients with personal and family history of schizophrenia or bipolar affective disorder and current dependence on alcohol or drugs were excluded from the study. […] Patients with contraindications for one of the drugs were allocated nonrandomly to the other antidepressant. […] The study was approved by ethics boards of all the participating centers. All participants provided written informed consent.

HTR7 [3] = biological target: HTR7 (Mus musculus, UniProt P32304); settings: in vivo; cited from earlier work
Sequence of HTR7 (Mus musculus, UniProt P32304) (P32304 whole entry): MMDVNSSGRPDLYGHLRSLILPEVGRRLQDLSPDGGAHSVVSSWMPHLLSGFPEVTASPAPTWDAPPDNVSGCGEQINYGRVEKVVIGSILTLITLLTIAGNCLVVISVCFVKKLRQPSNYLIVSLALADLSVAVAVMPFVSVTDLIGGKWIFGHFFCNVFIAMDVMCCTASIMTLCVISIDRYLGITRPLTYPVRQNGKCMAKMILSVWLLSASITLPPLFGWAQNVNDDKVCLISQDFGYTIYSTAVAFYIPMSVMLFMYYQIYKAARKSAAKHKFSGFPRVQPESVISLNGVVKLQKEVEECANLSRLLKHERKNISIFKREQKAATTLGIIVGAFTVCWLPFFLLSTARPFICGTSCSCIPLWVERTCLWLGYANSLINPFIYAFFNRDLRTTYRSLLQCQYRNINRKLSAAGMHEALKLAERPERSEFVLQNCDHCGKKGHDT

[4] = tested on: subjects with BD, MDD or SABP diagnosis; assay: Retrospective cohort: association of rs7905446 genotype with self-reported SSRI response (logistic regression); type: in vivo, human; settings: TT vs TG/GG, TT associated with poor response, logistic regression adjusted for sex and age, Caucasian subjects
Protocol: SNP genotyping. Genotyping of rs7905446 (T/G) was performed using TaqMan SNP genotyping assay on 7900HT Fast Real-Time PCR System (Thermo Fisher Scientific, Waltham, Mass., USA) as previously described. The assay included negative controls and was run with the following condition: 95° C. for 10 min followed by 40 cycles of 92° C. for 15 s and 60° C. for 1 min. The genotyping success rate was >95%. Twenty percent of the samples were genotyped in duplicate, with 100% reproducibility.
Statistical analysis. The association between drug response and allelic SNPs identified from pooled-sequencing were performed using logistic regression (PLINK version 1.9).. The association between drug response and rs7905446 genotype was performed using logistic regression within Caucasian population. χ^2 tests were used to compare the sex distribution between responder and non-responder. Group differences were analyzed using Student's T-test. P value<0.05 were considered statistically significant.
Subjects. All subjects (n=497) were ascertained as part of several cohorts collected for genetic studies of BD. Subjects were identified through VA and UCSD clinics, as well as, advertisement and patient support groups. […]
Assessment of SSRI response. […] Subject's response to SSRI's over their lifetime was assessed based on self-reporting. […]

[5] = biological target: norepinephrine transporter (Homo sapiens, UniProt P23975); settings: cited from earlier work
Sequence of norepinephrine transporter (P23975 whole entry, species assumed): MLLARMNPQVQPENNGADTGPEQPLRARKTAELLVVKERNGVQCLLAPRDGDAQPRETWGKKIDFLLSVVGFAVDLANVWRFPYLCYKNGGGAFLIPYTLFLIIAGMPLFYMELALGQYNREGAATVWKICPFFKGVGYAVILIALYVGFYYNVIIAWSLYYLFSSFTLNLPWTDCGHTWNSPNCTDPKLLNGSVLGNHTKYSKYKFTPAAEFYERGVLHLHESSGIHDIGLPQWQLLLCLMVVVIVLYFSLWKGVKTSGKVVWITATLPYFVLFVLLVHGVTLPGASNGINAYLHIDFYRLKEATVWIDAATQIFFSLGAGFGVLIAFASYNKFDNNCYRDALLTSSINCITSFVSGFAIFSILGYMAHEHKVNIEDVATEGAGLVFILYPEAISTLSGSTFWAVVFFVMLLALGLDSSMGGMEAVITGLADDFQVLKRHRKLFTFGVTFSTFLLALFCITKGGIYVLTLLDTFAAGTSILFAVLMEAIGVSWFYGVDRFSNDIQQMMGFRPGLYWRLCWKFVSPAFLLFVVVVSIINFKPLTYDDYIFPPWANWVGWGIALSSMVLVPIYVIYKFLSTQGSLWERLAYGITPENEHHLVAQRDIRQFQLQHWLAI

HTR7 [6] = settings: chronic treatment; cited from earlier work

Sequence of HTR7 (Homo sapiens, UniProt P34969) (P34969 whole entry): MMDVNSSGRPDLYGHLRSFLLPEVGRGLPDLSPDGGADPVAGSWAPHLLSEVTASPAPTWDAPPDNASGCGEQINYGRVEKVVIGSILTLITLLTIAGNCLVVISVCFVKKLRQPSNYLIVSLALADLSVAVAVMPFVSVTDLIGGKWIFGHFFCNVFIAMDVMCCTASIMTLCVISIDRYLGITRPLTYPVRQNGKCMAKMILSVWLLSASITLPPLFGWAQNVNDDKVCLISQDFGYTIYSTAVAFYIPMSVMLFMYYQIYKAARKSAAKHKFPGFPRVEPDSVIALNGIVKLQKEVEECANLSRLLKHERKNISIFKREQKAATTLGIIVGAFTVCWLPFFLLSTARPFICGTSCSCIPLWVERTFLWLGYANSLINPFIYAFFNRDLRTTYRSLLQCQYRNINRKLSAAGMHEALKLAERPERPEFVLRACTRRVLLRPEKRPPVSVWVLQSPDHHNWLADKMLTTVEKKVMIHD

CN(C)CCC=C1c2ccccc2CCc2ccccc21 [amitriptyline, Amitriptyline]
affinity to HTR7 (HTR7 [1]): high affinity

O=C1[C@H]2CCCC[C@H]2C(=O)N1CCCCN1CCN(c2nsc3ccccc23)CC1 [perospirone, Perospirone]
affinity to HTR7 (HTR7 [1]): high affinity

CCN1CCCC1CNC(=O)c1cc(S(=O)(=O)CC)c(N)cc1OC (stereo not drawn) [amisulpride, Amisulpride]
affinity to HTR7 (HTR7 [1]): high affinity

O=C1[C@@H]2[C@H]3CC[C@H](C3)[C@@H]2C(=O)N1C[C@@H]1CCCC[C@H]1CN1CCN(c2nsc3ccccc23)CC1 [lurasidone, Lurasidone]
affinity to HTR7 (HTR7 [1]): high affinity

CNCCC=C1c2ccccc2CCc2ccccc21 [Nortriptyline, Nortyptiline]
OR, Rs7905446, remitter vs. non-remitter [2]: 0.694

CC1CCN(CC[C@H]2CCCN2S(=O)(=O)c2cccc(O)c2)CC1 [SB-269970]
effects of SSRI and NARI on blockade of HTR7 (HTR7 [3]): potentiate

Cc1nc2n(c(=O)c1CCN1CCC(c3noc4cc(F)ccc34)CC1)CCCC2 [risperidone, Risperidone]
affinity to HTR7 (HTR7 [1]): high affinity

Fc1ccc([C@@H]2CCNC[C@H]2COc2ccc3c(c2)OCO3)cc1 [Paroxetine]
OR, Rs7905446, responder vs. non-responder [4]: 5.250

CN(C)CCC[C@@]1(c2ccc(F)cc2)OCc2cc(C#N)ccc21 [Escitalopram]
effect on norepinephrine transporter [5]: no direct effect | OR, Rs7905446, remitter vs. non-remitter [2]: 1.669

CNCCC(Oc1ccc(C(F)(F)F)cc1)c1ccccc1 (stereo not drawn) [fluoxetine, Fluoxetine]
HTR7 expression (HTR7 [6]): downregulates

Clc1ccc2c(c1)C(N1CCNCC1)=Nc1ccccc1O2 [amoxapine, Amoxapine]
affinity to HTR7 (HTR7 [1]): high affinity
